This note sets out measurements from patent US20230414778A1, “COMBINATION OF ANTIBODY-DRUG CONJUGATE WITH ANTI-SIRPalpha ANTIBODY” (DAIICHI SANKYO COMPANY, LIMITED, priority 2020, published 2023).

Test [1] concerns mouse colorectal cancer cell line CT26.WT. Briefly: ICD induction evaluation (in vitro): ATP in culture supernatant. The class given is cell-based. Particulars: CT26.WT culture supernatant after 24 hours; MTX 0.4-6 μM vs control (0 μM); compound (A) 1-16 μM vs R10 or R10-DMSO. The procedure:
In cancer cells treated with different compounds, the ATP level, and the expression level of HMGB1, which serve as an index of Immunogenic cell death (ICD), were measured. Cells of mouse colorectal cancer cell line CT26.WT were seeded in a 6-well plate and cultured overnight. After the supernatant was removed, the cells were washed twice with PBS. Compound (A) was dissolved in RPMI1640 culture solution containing 10% FBS (R10) to prepare solutions having a final concentration of 0, 1, 4 and 16 μM. As a positive control, Mitoxantrone (MTX) was dissolved in DMSO and added at a final concentration of 0.4, 1.5 and 6 μM. To the control (0 μM) herein, DMSO was added in the same amount as that of compound (A) (R10-DMSO). Twenty four hours later, the culture supernatant was collected, and the levels of ATP and HMGB1 were measured. The level of ATP was measured by adding the culture supernatant in a 96-well white plate, adding the same amount of Back titer-Glo (manufactured by Promega Corporation) and determining the amount of luminescence by a plate reader. The level of HMGB1 was detected by a HMGB1 ELISA-kit (manufactured by Shino-Test Corporation) in accordance with the Sandwich ELISA method. […] The absorbance at 405 nm was measured by a plate reader. […] The results satisfying P<0.05 (two-sided test) were determined as being significant.

Test [2] shares this test system. Briefly: ICD induction evaluation (in vitro): HMGB1 in culture supernatant (ELISA). Particulars: for release of HMGB1, maximum, relative to control: CT26.WT culture supernatant after 24 hours, MTX 0.4-6 μM vs control (0 μM), compound (A) 1-16 μM vs R10 or R10-DMSO; for HMGB1 released in the culture supernatant (confirmation of ICD induction): Example 3, CT26.WT, compound (A) 4 μM or MTX 1 μM, 24 hours. The class given is cell-based. The procedure: In cancer cells treated with different compounds, the ATP level, and the expression level of HMGB1, which serve as an index of Immunogenic cell death (ICD), were measured. Cells of mouse colorectal cancer cell line CT26.WT were seeded in a 6-well plate and cultured overnight. After the supernatant was removed, the cells were washed twice with PBS. Compound (A) was dissolved in RPMI1640 culture solution containing 10% FBS (R10) to prepare solutions having a final concentration of 0, 1, 4 and 16 μM. As a positive control, Mitoxantrone (MTX) was dissolved in DMSO and added at a final concentration of 0.4, 1.5 and 6 μM. To the control (0 μM) herein, DMSO was added in the same amount as that of compound (A) (R10-DMSO). Twenty four hours later, the culture supernatant was collected, and the levels of ATP and HMGB1 were measured. The level of ATP was measured by adding the culture supernatant in a 96-well white plate, adding the same amount of Back titer-Glo (manufactured by Promega Corporation) and determining the amount of luminescence by a plate reader. The level of HMGB1 was detected by a HMGB1 ELISA-kit (manufactured by Shino-Test Corporation) in accordance with the Sandwich ELISA method. In the plate provided in the kit, a test buffer was added, and thereafter, an HMGB1 standard solution diluted with the test buffer and the culture supernatant were added thereto. It was allowed to stand at 37° C. for 24 hours. After the supernatant was removed and the cells were washed five times with PBS/Tween 20 (200 μL/well), a secondary-antibody solution provided in the kit was added in an amount of 100 μL/well. It was allowed to stand at room temperature for 2 hours. After the supernatant was removed, the cells were washed five times with PBS/Tween 20 (200 μL/well). Thereafter, a color-producing solution provided in the kit was added in an amount of 100 μL/well. The plate was allowed to stand at room temperature for 30 minutes. A stop solution (100 μL/well) was added and stirred. The absorbance at 405 nm was measured by a plate reader. The results of the control group and compound (A) group were compared in accordance with the Dunnett's test. P value was expressed to four decimal places. The results satisfying P<0.05 (two-sided test) were determined as being significant.
(§1) Cells of mouse colorectal cancer cell line CT26.WT were seeded in a cell-culture flask and cultured overnight. The supernatant was removed and the cells were washed twice with PBS. To induce ICD, compound (A) (4 μM) or MTX (1 μM) was added in a RPMI1640 culture solution containing 10% FBS (R10). Twenty four hours later, HMGB1 in the culture supernatant was measured in accordance with the method shown in Example 1 in order to confirm ICD induction.
A general note: In an ELISA, binding on a coated surface is turned into a signal by an enzyme label.

Another test concerns CT26.WT cells. The experiment in a line: Evaluation of in vivo ICD induction (vaccination effect, re-challenge). On the set-up: species or system BALB/c mice. The settings on record: mice inoculated with drug-treated CT26.WT cells, n=6. As to the method:
as §1
For evaluating in vivo ICD, the culture supernatant was removed from each of the culture flasks treated with drugs and the cells were washed twice with PBS, and then cells were collected. The supernatant was removed and the cells were washed once with PBS to prepare a suspension containing 5.0×10^6 cells/mL. As a control, a suspension was prepared by adding CT26.WT cells, which were cultured in a RPMI1640 culture solution containing 10% FBS without a drug, in an amount of 5.0×10^6 cells/mL, in the same manner as above. After centrifugation, the supernatant was removed. The cells were subjected to a freeze-thaw process repeatedly three times and suspended again in PBS to obtain Necrotic cell death (NCD) cells.
The cells (5.0×10^6 cells) of each group mentioned above were subcutaneously inoculated into the right axilla of each of female 6 week-old BALB/c mice (BALB/c AnNCrlCrlj) (bred by CHARLES RIVER LABORATORIES JAPAN, INC.) (inoculation, Day 0). An anti-SIRPα antibody (clone: 5C12) or an anti-CD47 antibody (clone: MIAP410, manufactured by Bio X Cell, Inc.) was intraperitoneally administered at a dose of 10 mg/kg on Day 1 and 5 (two times in total). As a control, the same amount of PBS was administered. Seven days later, CT26.WT cells (3.0×10^6 cells) not treated with a drug were subcutaneously inoculated into the left axilla of each of the mice (re-challenge, Day 0). On Day 14, tumor volumes were measured to evaluate vaccination effect. Note that the number of mice per group was 6. The results of the NCD-PBS group and individual groups were compared in accordance with the Dunnett's test, P value was expressed to four decimal places. The results satisfying P<0.05 (two-sided test) were determined as being significant.

The mark [3] stands for this setting: PBS administration, re-challenge, Day 14.
The mark [4] stands for this setting: plus anti-SIRPα antibody (clone 5C12) 10 mg/kg i.p. Day 1 and 5.

The structures appear in SMILES notation.

Take `O=C1c2c(O)ccc(O)c2C(=O)c2c(NCCNCCO)ccc(NCCNCCO)c21` [MTX, Mitoxantrone, reference compound]: the “release of ATP, maximum, relative to control” value in test [1] is reported as “about 4 times”. For the same molecule, in test [2], the “release of HMGB1, maximum, relative to control” value is listed as “about 3 times” and the “HMGB1 released in the culture supernatant (confirmation of ICD induction)” value is given as “released”. Also, in the test with CT26.WT cells (setting [3]), the “number of CR individuals (engraftment of re-challenged tumor rejected)” value (“number of CR individuals” for short) is recorded as 2/6. In addition, the “number of CR individuals” value in the test with CT26.WT cells (setting [4]) is reported as 4/6.

`CC[C@@]1(O)C(=O)OCc2c1cc1n(c2=O)Cc2c-1nc1cc(F)c(C)c3c1c2[C@@H](NC(=O)CO)CC3` [compound (A)]: the “release of ATP, maximum, relative to control” value in test [1] is on record as “about 4.6 times”. Also, the “release of HMGB1, maximum, relative to control” value in test [2] is listed as “about 4.6 times”. Further, in test [2], the “HMGB1 released in the culture supernatant (confirmation of ICD induction)” value is “released”. The “number of CR individuals” value is 5/6 in the test on CT26.WT cells (setting [3]); “all cases show CR” with CT26.WT cells (plus anti-CD47 antibody (clone MIAP410) 10 mg/kg i.p. Day 1 and 5); “all cases show CR” with CT26.WT cells (setting [4]).
